The values that follow come from patent publication US20130209487A1, “Treatment of Avian Species with Inhibitors of P110 Delta Signaling” (priority 2010, published 2013).

The subject of data set [1] is H7N7 A/Equine/London/1416/73 influenza virus strain. Further details: species or system mice. The settings on record: mouse, in vivo.
In data set [2] the test system is influenza virus strain PR8. The class given is cell-based.

The structures appear in SMILES notation. Entries after “also recorded” stand apart in the source; their conditions may differ.

Regarding `Cc1ccccc1-n1c(Cn2cnc3c(N)ncnc32)nc2cccc(C)c2c1=O` [IC87114], the “survival after lethal challenge” value in data set [1] is listed as “increased survival; also recorded: protects mice lethally challenged with virulent influenza virus”. Further, in data set [2], the influenza virus replication entry is “inhibits influenza virus replication” and the “viral mRNA production reduced compared to untreated cells” value is recorded as approximately 25 fold. The “survival of A549 cell” value in the data set on A549 cell is recorded as “did not affect the survival”.
